Where a name gives a salt, the structure may show the parent alone.
What was measured:
rat iNOS (inducible NOS) = molecular target: T1, rat iNOS (inducible NOS) (Rattus norvegicus, UniProt Q06518); experiment: NOS activity, [3H]arginine to [3H]citrulline conversion, iNOS; format: biochemical; settings: Conc = 1 mM
T1 construct: purchased Cayman, Ann Arbor, Mich
Experimental: (§1) NOS activity was measured by monitoring the conversion of [^3H]arginine to [^3H]citrulline (Bret et al. 1990) using three commercially available isoforms of rat NOS: nNOS (neuronal NOS) (602 units/ml, 14.9 mg/ml), iNOS (inducible NOS) (249.7 units/ml, 21.1 mg/ml), and eNOS (epithelial NOS) (30 units/ml, 14.6 mg/ml) (Cayman, Ann Arbor, Mich.). Neuronal NOS and iNOS were diluted 1:10, while eNOS was used directly without dilution. Unless otherwise indicated, each tube was incubated at 37° C. for 60 minutes. Assay buffer contained 50 mM Tris-HCl, pH7.4, 2 mM CaCl2, 1 mM NADPH, 10 mM BH4, 5 mM FAD, 5 mM FMN, and 10 mg/ml calmodulin plus radioactive precursor. After incubation, the assay reaction was halted by addition of 400 μl of buffer containing 5 mM EDTA and 50 mM HEPES. Equilibrated resin ([…], Dowex AG50WX-8 (Na^+ form) was added and the reaction mixture was transferred to spin cups and into cup holders. The mixture was passed through the Dowex AG50WX-8 resin and the filtrate collected in a spin cup. NOS activity was determined by counting the radioactivity in the flow-through (unbound) fraction. Each assay was measured in triplicate.
(§2) QSAR were studied by ab initio Hartree-Fock calculations with the Gaussian 94 computer program (Frisch et al. 1995). Based on the optimized geometry and van der Waals radius of each atom, calculations were performed with BlogP and BlogW programs (Bodor et al. 1989, 1992A, and 1992B) to determine molecular surfaces, volumes, ovalities, partition coefficients, and water solubilities. Linear combinations of these calculated descriptors were then fitted to the observed enzyme activities. The observed activities were the remaining percentage of rat agmatinase activity at 0.5 mM of each compound, the remaining percentage of rat NOS isozyme activity at 1 mM of each compound, and the remaining percentage of rat brain NMDA receptor binding at 0.1 mM of each compound.

rat brain NMDA receptor = experiment: [3H]-MK801 binding assay in rat brain membranes; settings: Conc = 0.1 mM
Experimental: The binding of [^3H]-MK801 to NMDA (N-methyl-D-aspartate) receptors was measured in rat brain membranes as described in Renolds et al. (1990). Briefly, the membranes were incubated in HEPES buffer (pH 7.4) containing 0.4 nM [^3H]-MK801, 100 μM glutamate, and 30 μM glycine for 1 hour at 25° C. The binding was terminated by rapid filtration over glass fiber filters and radioactivity counted. Nonspecific binding was defined using 50 μM unlabelled MK801.
QSAR were studied by ab initio Hartree-Fock calculations with the Gaussian 94 computer program (Frisch et al. 1995). Based on the optimized geometry and van der Waals radius of each atom, calculations were performed with BlogP and BlogW programs (Bodor et al. 1989, 1992A, and 1992B) to determine molecular surfaces, volumes, ovalities, partition coefficients, and water solubilities. Linear combinations of these calculated descriptors were then fitted to the observed enzyme activities.

[1] = molecular target: T2, rat eNOS (epithelial NOS) (Rattus norvegicus, UniProt Q62600); experiment: NOS activity, [3H]arginine to [3H]citrulline conversion, eNOS; format: biochemical; settings: Conc = 1 mM
T2 construct: purchased Cayman, Ann Arbor, Mich
Experimental: as §1, §2

rat agmatinase = experiment: Agmatinase activity assay ([14C]-agmatine hydrolysis); format: biochemical; settings: for Agmatinase activity remaining (%): Conc = 0.5 mM; for Activity for inhibiting agmatinase, in words: among the 14 test compounds
Experimental: Agmatinase activity was measured by the method of Satishchandran and Boyle (1986) as detailed in Sastre et al. (1996). The assay is based on the hydrolysis of guanido [^14C]-agmatine to [^14C]-urea and putrescine, and subsequent trapping of [^14C]—CO2 from the labeled urea, by the addition of urease. Assays were carried out for 30 minutes at 37° C. in 300 μl of sample containing 100 mM HEPES, pH 7.8, 4 mM MgSO4, 1 mM dithiothreitol, 10 mM L-agmatine, 7 μM [^14C]-agmatine and 0.06 units of urease. Release of [^14C]—CO2 from [^14C]-urea was measured by trapping the [^14C]—CO2 in filter paper wicks saturated with benzethonium hydroxide. The reaction was stopped by injection of 40% trichloroacetic acid into the reaction chamber and the filters transferred to mini-vials containing 5 mL CYTOSCINT® cocktail (ICN Biomedicals), and counted for radioactivity by liquid scintillation spectrometry using a Beckman model LS 5801 scintillation counter.
as §2

rat nNOS (neuronal NOS) = molecular target: T3, rat nNOS (neuronal NOS) (Rattus norvegicus, UniProt P29476); experiment: NOS activity, [3H]arginine to [3H]citrulline conversion, nNOS; format: biochemical; settings: Conc = 1 mM
T3 construct: purchased Cayman, Ann Arbor, Mich
Experimental: as §1, §2

Compound | remaining activity at 1000 µM (rat iNOS (inducible NOS)) | 3H-MK801 Binding Remaining (%) (rat brain NMDA receptor) | remaining activity at 1000 µM [1] | Agmatinase activity remaining (%) (rat agmatinase) | remaining activity at 1000 µM (rat nNOS (neuronal NOS)) | Activity Remaining (%) iNOS (rat iNOS (inducible NOS)) | Activity Remaining (%) eNOS [1] | Activity Remaining (%) nNOS (rat nNOS (neuronal NOS)) | Activity for inhibiting agmatinase, in words (rat agmatinase)
N=C(N)NCCCCN.O=S(=O)(O)O [Agmatine sulfate, reference compound] | 35.2% | 93.8% | 97.4% | 37% | 32.5% |  |  |  | 
N=CNCCCNCCCNC=N [Bis (3-(N-Iminomethyl)-aminopropyl)amine] |  | 99.7% |  | 38.0% |  | 65.2% | 88.7% | 23.5% | 
O=[N+]([O-])c1cccc2cn[nH]c12 [7-nitroindazole, reference compound] | 1% |  | 0% |  | 1% |  |  |  | 
NC(N)=NCCCCN=C(N)N [Arcaine sulfate, reference compound] | 37.8% | 45.1% | 83.4% | 29.5% | 9.8% |  |  |  | 
N=C(N)NN [Amino guanidine, reference compound] | 1% | 90.6% | 30% | 53% | 20% |  |  |  | 
C=C[C@](N)(CCCNC(=N)N)C(=O)O (racemic) [Alpha-Vinylarginine] | 7% | 99.7% | 67.4% | 52.0% | 4.2% |  |  |  | 
Trans-4-Aminocyclohexyl guanidine |  |  |  | 97.0% |  | 99.6% | 69.4% | 42.5% | best activity
N=C(N)NCCCN [3-Aminopropylguanidine] |  | 93.9% |  | 3.1% |  | 5.1% | 60.8% | 6.9% | best activity

Reference: patent US7347984B2, “Mammalian agmatinase inhibitory substance” (Jackson State University, priority 2004, dated 2008)
